Legend:
[1] = reversed-phase LC retention time (C18, 15 min MeOH gradient); higher = more hydrophobic / later elution
Method: (§1)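 Reference mixture of environmental contaminants analysed by RP-LC (BEH C18, 50 °C; ESI+ with water/MeOH plus formic acid and ammonium formate, ESI- with ammonium bicarbonate) coupled to a timsTOF Pro 2 with trapped ion mobility in nitrogen (ramp/accumulation 100 ms). CCS was calibrated with Agilent tune mix (CCS compendium) and averaged over five injections at 0.5-500 ng/mL. The table reports the lowest-CCS (putative monomer) peak; retention times are on the same gradient.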

[2] = collision cross section (TIMS, N2 drift gas) of the primary ion; higher = larger gas-phase ion size
Method: as §1

[3] = ionization mode: ESI+, ion species: [M+H]+
[4] = ionization mode: ESI-, ion species: [M-H]-

SMILES	reversed-phase LC retention time [1, 3] [min]	collision cross section [2, 3] [Å²]	reversed-phase LC retention time [1, 4] [min]	collision cross section [2, 4] [Å²]
[O-][n+]1cccc2ccccc21 [Quinoline N-oxide]	7.48	124.14	–	–
CC(c1ccc(O)cc1)(c1ccc(O)cc1)c1ccc(O)cc1 [1,1,1-Tris(4-hydroxyphenyl)ethane]	–	–	12.4	183.23
COc1ccc(CCN(C)CCCC(C#N)(c2ccc(OC)c(OC)c2)C(C)C)cc1OC (configuration not stated) [Verapamil]	12.2	208.22	–	–
CC12CCC(=O)C=C1CCC1C2CCC2(C)C(C(=O)CO)CCC12 (configuration not stated) [21-Hydroxyprogesterone]	14.5	183.52	–	–
C[C@H](CCC(=O)O)[C@H]1CC[C@H]2[C@@H]3[C@H](O)C[C@@H]4C[C@H](O)CC[C@]4(C)[C@H]3CC[C@]12C [Chenodeoxycholic acid]	–	–	15.6	209.87
O=C1Cc2cc(CCN3CCN(c4nsc5ccccc45)CC3)c(Cl)cc2N1 [Ziprasidone]	11.2	192.95	–	–
CC1(C)CC(NC(=O)c2cccc(C(=O)NC3CC(C)(C)NC(C)(C)C3)c2)CC(C)(C)N1 [Nylostab S-EED]	8.03	235.31	11.7	232.92
CC(=O)Nc1ccc(O)cc1 [Acetaminophen]	5.38	130.01	–	–
C#C[C@]1(O)C=C[C@H]2[C@@H]3CCC4=CC(=O)CC[C@@H]4[C@H]3CC[C@@]21CC [Gestoden]	14	181.55	–	–
COCCOCCOCCOCCOC [Tetraglyme]	8.94	152.39	–	–
COc1c(C)c2c(c(O)c1C/C=C(\C)CCC(=O)O)C(=O)OC2 [Mycophenolic acid]	13.4	169.04	11.3	175.76
CCC(C)C(=O)OC1CC(O)C=C2C=CC(C)C(CCC(O)CC(O)CC(=O)O)C21 (configuration not stated) [Pravastatin]	–	–	12.1	203.46
OC(Cn1cncn1)(c1ccc(F)cc1)c1ccccc1F (configuration not stated) [Flutriafol]	12.9	167.74	–	–
O=S(=O)(O)c1ccc2ccc(S(=O)(=O)O)cc2c1 [2,7-Naphthalenedisulfonic acid]	–	–	0.97	159.15
CCOP(=S)(OCC)SCSP(=S)(OCC)OCC [Ethion]	16.9	176.99	–	–
CC(C)C(=O)OCC(C)(C)C(OC(=O)C(C)C)C(C)C (configuration not stated) [2,2,4-Trimethyl-1,3-pentanediol diisobutyrate]	17	172.79	–	–
CCC(C)n1c(=O)[nH]c(C)c(Br)c1=O (configuration not stated) [Bromacil]	11.4	144.76	–	–
CNC(=O)c1cc(Cl)cc(C)c1NC(=O)c1cc(Br)nn1-c1ncccc1Cl [Chlorantraniliprole]	13.5	199.14	13.8	197.51
CCCOC(=O)NCCCN(C)C [Propamocarb]	6.24	142.68	–	–
C[C@H](CCC(=O)O)[C@H]1CC[C@H]2[C@@H]3[C@H](O)C[C@@H]4C[C@H](O)CC[C@]4(C)[C@H]3C[C@H](O)[C@]12C [Cholic acid]	–	–	14.7	203.99
O=C(Nc1ccc(F)cc1)c1cccc(Oc2cccc(C(F)(F)F)c2)n1 [Picolinafen]	16.8	189.81	17.2	186.89
O=c1[nH]sc2ccccc12 [1,2-Benzisothiazolinone]	8.77	125.68	10.6	122.13
CCN(CC)c1ccccc1 [Diethylphenylamine]	6.93	129.02	–	–
CC1(C)CC(OC(=O)CCCCCCCCC(=O)OC2CC(C)(C)NC(C)(C)C2)CC(C)(C)N1 [Bis(2,2,6,6-tetramethyl-4-piperidyl)sebacate]	11.8	225.08	–	–
CC(C)COC(=O)c1ccccc1C(=O)O [Mono-iso-butyl-phthalate]	–	–	10.2	151.15
CC(C)C1CCC(Cc2ccc(Cl)cc2)C1(O)Cn1cncn1 (configuration not stated) [Ipconazole]	16.4	174.42	–	–
Cc1cccc(Nc2ccccc2C(=O)O)c1C [Mefenamic acid]	16.3	154.45	13.6	159.71
O=S(=O)(O)C(F)(F)C(F)(F)C(F)(F)C(F)(F)F [Perfluorobutanesulfonic acid]	–	–	11.3	132.6
Cc1c(N)c(=O)n(-c2ccccc2)n1C [4-Aminoantipyrine]	7.19	142.4	–	–
O=C(O)c1cc(C(=O)O)cc([N+](=O)[O-])c1 [5-Nitroisophthalic acid]	–	–	0.96	137.91

Reference: the supplement of paper PMC12613149
